Results taken from article PMC8355692, “Antimelanoma activities of chimeric thiazole–androstenone derivatives” (Royal Society Open Science, 2021).

Key:
LOX IMVI = assay: NCI DTP 60 cell line five-concentration test, melanoma panel; assay type: cell-based; conditions: for LC50 (50% lethal concentration) / GI50: Homo sapiens; for LC50 (50% lethal concentration): LOX IMVI, read-out: LC50 (50% lethal concentration); for GI50 / TGI (total growth inhibition): LOX IMVI melanoma cell line
Method: (§1) In our effort to develop new methodologies to synthesize bioactive compounds [11–14], we have synthesized a number of thiazole and thiazolo-androstenone derivatives. We submitted 50 of the synthesized thiazole–androstenone derivatives to the National Cancer Institute (NCI) Development Therapeutics Program (DTP) to test against 60 cancer cell lines (https://dtp.cancer.gov/). These compounds were tested for cytotoxicity at a single dose of 10 µM. […] Eight of these chimeric compounds (figure 2) were selected for further testing at five different concentrations to determine 50% growth inhibition (GI50), total growth inhibition (TGI) and 50% lethal concentration (LC50) values. […] Overall, amino-thiazole derivatives (table 1, 1–7) were more toxic to melanoma cell lines than phenyl thiazole derivatives (8). Fluoro and oxy (hydroxy and methoxy) derivatives were the potent growth inhibitors of the tested cancer cell lines. LOX IMVI cell line was the most susceptible among all the melanoma cell lines used against the tested compounds (table 1). […] Phenyl ethyl derivative (1) inhibited the growth of all the cell lines except SK-MEL-2. […] 2,4-Dimethyl substituted derivative (7) is a potent growth inhibitor of all the tested cell lines of the melanoma panel.

M14 = assay: as above; assay type: cell-based; conditions: for GI50 / CC50: Homo sapiens; for GI50: M14, M14 melanoma cell line; for CC50: M14, read-out: LC50 (50% lethal concentration); for TGI (total growth inhibition): M14 melanoma cell line
Method: as §1

MALME-3M = assay: as above; assay type: cell-based; conditions: for CC50 / GI50: Homo sapiens; for CC50: Malme-3M, read-out: LC50 (50% lethal concentration); for GI50 / TGI (total growth inhibition): MALME-3M melanoma cell line
Method: as §1

MDA-MB-435 = assay: as above; assay type: cell-based; conditions: for CC50 / GI50: Homo sapiens; for CC50: MDA-MB-435, read-out: LC50 (50% lethal concentration); for GI50 / TGI (total growth inhibition): MDA-MB-435 melanoma cell line
Method: as §1

SK-MEL-28 = assay: as above; assay type: cell-based; conditions: for GI50 / CC50: Homo sapiens; for GI50: SK-MEL-28, SK-MEL-28 melanoma cell line; for CC50: SK-MEL-28, read-out: LC50 (50% lethal concentration); for TGI (total growth inhibition): SK-MEL-28 melanoma cell line
Method: as §1

SK-MEL-2 = assay: as above; assay type: cell-based; conditions: for LC50 (50% lethal concentration) / GI50: Homo sapiens; for LC50 (50% lethal concentration): SK-MEL-2, read-out: LC50 (50% lethal concentration); for GI50 / TGI (total growth inhibition): SK-MEL-2 melanoma cell line
Method: as §1

SK-MEL-5 = assay: as above; assay type: cell-based; conditions: for CC50 / GI50: Homo sapiens; for CC50: SK-MEL-5, read-out: LC50 (50% lethal concentration); for GI50 / TGI (total growth inhibition): SK-MEL-5 melanoma cell line
Method: as §1

UACC-257 = assay: as above; assay type: cell-based; conditions: for CC50 / GI50: Homo sapiens; for CC50: UACC-257, read-out: LC50 (50% lethal concentration); for GI50 / TGI (total growth inhibition): UACC-257 melanoma cell line
Method: as §1

UACC-62 = assay: as above; assay type: cell-based; conditions: for GI50 / LC50 (50% lethal concentration): Homo sapiens; for GI50: UACC-62, UACC-62 melanoma cell line; for LC50 (50% lethal concentration): UACC-62, read-out: LC50 (50% lethal concentration); for TGI (total growth inhibition): UACC-62 melanoma cell line
Method: as §1

[1] = Solubility in the growth media; assay type: physicochemical; conditions: growth media of the HFF-1 test
HFF-1 cell line = assay: Toxicity for normal human foreskin fibroblast cell line; assay type: cell-based; conditions: normal human foreskin fibroblast HFF-1
From the text: To assess the potential use of lead compounds as anti-melanoma agents, we tested their toxicity for the normal human foreskin fibroblast (HFF-1) cell line taking into consideration that MM is usually surrounded by the cells of this kind. The effects of some of the potent compounds on this cell line were very encouraging (table 4).

SK-MEL-28 cell line = assay: Annexin V flow cytometry apoptosis assay; assay type: cell-based; conditions: SK-MEL-28, 200 µM
Method: After determining the selective toxicity of potent molecules, we determined their mode of action against the melanoma cell line. Apoptosis or programmed cell death is a physiological process to remove unwanted or damaged mammalian cells. We detected apoptosis mode of cell death by our potent compounds using flow cytometry-based Annexin V assay. Compound 3 caused 23% apoptosis at 6 µM and 54% apoptosis at 12 µM (figure 3). 3-Fluorophenyl derivative (5) was a very potent apoptosis-inducing agent that caused 100% cell death at 12 µM concentration. Dacarbazine, the positive control, caused 22% apoptotic cell death at 200 µM concentration.
Figure 3. Apoptosis measurements using Annexin V flow cytometry assay of compounds 3 and 5 against SK-MEL-28 cell line at 6 and 12 µM concentrations. DMSO and dacarbazine (Daca) are negative and positive controls, respectively. Mean ± s.e.m., n = 3 per group.

melanoma cells = assay: TUNEL staining for DNA fragmentation and irreversible cell death; conditions: 5 or 10 µM, 24 h
From the text: Apoptosis is usually associated with profound DNA fragmentation that makes the cell death irreversible. DNA fragmentation could be due to the increasing of nuclear DNA access to apoptotic endonucleases and the induction of these enzymes. This DNA fragmentation is best measured by using the terminal deoxynucleotidyl transferase dUTP nick-end labelling (TUNEL) assay. […] Immunostaining for major marker of oxidative injury, heme oxygenase-1 (HO1) was done to determine whether the test compounds induce oxidative injury. […] Activation of endonucleases and their translocation to the nucleus is actually the last step when cell death becomes irreversible. It is often preceded by an oxidative cell injury that activates or aggravates the cell death mechanism. To measure whether our compounds induce oxidative injury, we chose to measure HO1 which is a well-established mechanistic marker of oxidative injury. Because HO1 is not a nuclear marker and it is not translocated to the nucleus and contact DNA during cell death, instead of colocalization by pixels, we counted the percentage of TUNEL-positive (dead) cells which are also HO1-positive (figure 5a). […] We next examined whether caspase-activated DNase (CAD), a known mechanistic marker of caspase-mediated apoptosis, is colocalized with TUNEL during cell death induced by dacarbazine or our test compounds (3, 4 and 5).
Figure 4. […]

heme oxygenase-1 (HO1) = assay: HO1 immunocytochemistry combined with TUNEL (oxidative injury); assay type: cell-based; conditions: melanoma cells, 5 or 10 µM, 24 h
From the text: (§2) The elevation was dose-dependent.
(§3) Figure 4. […] (c) Representative images. […] Mean ± s.e.m., n = 4 per group.
(§4) Figure 5. […] (a) Representative images of TUNEL colocalized or not colocalized with each of the three protein markers used in this study. […] Mean ± s.e.m., n = 4 per group.
(§5) Thus, to determine the mechanism of action of our compounds on melanoma cells in vitro, we applied the fluorescent TUNEL assay combined with quantitative ICC for three markers: HO1 for oxidative cell injury, CAD for caspase-mediated apoptosis and EndoG for caspase-independent apoptosis. […] However, none of the compounds or dacarbazine induced apoptotic endonucleases. This is not surprising because apoptotic endonucleases are commonly present in the cell in sufficient amounts to be able to destroy DNA upon cell death without induction (which most likely would not be possible in a dead cell).

[2] = system: caspase-activated DNase (CAD); assay: CAD immunocytochemistry combined with TUNEL (caspase-mediated apoptosis); assay type: cell-based; conditions: melanoma cells, 5 or 10 µM, 24 h
From the text: as §2, §3, §4, §5

endonuclease G (EndoG) = assay: EndoG immunocytochemistry combined with TUNEL (caspase-independent apoptosis); assay type: cell-based; conditions: melanoma cells, 24 h
From the text: as §2, §3, §4, §5

melanoma panel = assay: NCI DTP test, statements for the whole melanoma panel; assay type: cell-based
Method: as §1

SMILES | LC50 (50% lethal concentration) (LOX IMVI) | GI50 (LOX IMVI) | TGI (total growth inhibition) (LOX IMVI) | GI50 (M14) | CC50 (M14) | TGI (total growth inhibition) (M14) | CC50 (MALME-3M) | GI50 (MALME-3M) | TGI (total growth inhibition) (MALME-3M) | CC50 (MDA-MB-435) | GI50 (MDA-MB-435) | TGI (total growth inhibition) (MDA-MB-435) | GI50 (SK-MEL-28) | CC50 (SK-MEL-28) | TGI (total growth inhibition) (SK-MEL-28) | LC50 (50% lethal concentration) (SK-MEL-2) | GI50 (SK-MEL-2) | GI50 (SK-MEL-5) | GI50 (UACC-257) | GI50 (UACC-62) | further results
C[C@]12CCc3nc(NCCc4ccccc4)sc3C1=CC[C@@H]1[C@@H]2CC[C@]2(C)C(=O)CC[C@@H]12 [Compound 1] | 5.91 µM | 1.7 µM | 3.17 µM | 3.63 µM | > 100 µM | >100 µM | > 100 µM | 2.18 µM | 6.82 µM | > 100 µM | 3.01 µM | >100 µM | 3.37 µM | > 100 µM | 18.9 µM | > 100 µM | 17 µM | 4.57 µM | 4.92 µM | 2.67 µM | TGI (total growth inhibition) (SK-MEL-2): >100 µM; CC50 (SK-MEL-5): > 100 µM; TGI (total growth inhibition) (SK-MEL-5): 52.7 µM; CC50 (UACC-257): > 100 µM; TGI (total growth inhibition) (UACC-257): 79.8 µM; LC50 (50% lethal concentration) (UACC-62): > 100 µM; TGI (total growth inhibition) (UACC-62): 10.6 µM; solubility in the growth media [1]: low solubility
CN(C)/N=N/c1[nH]cnc1C(N)=O [dacarbazine, reference compound] |  |  |  |  |  |  |  |  |  |  |  |  |  |  |  |  |  |  |  |  | toxicity against HFF1 cells (in words) (HFF-1 cell line): did not show any notable toxicity; IC50 (HFF-1 cell line; read-out: IC50 against HFF1 cell line): > 100 µM; apoptotic cell death (SK-MEL-28 cell line): 22%; cytotoxicity by TUNEL staining (TUNEL-positivity) (melanoma cells): negligent; HO1 staining in TUNEL-positive cells (oxidative injury) (heme oxygenase-1 (HO1)): without induction of HO1; CAD mean intensity [2]: No significant induction; colocalization of CAD with TUNEL (caspase-mediated apoptosis) [2]: did not induce any association of CAD with TUNEL; EndoG overlap with TUNEL staining (caspase-independent apoptosis) (endonuclease G (EndoG); 5 µM): did not show any effect; EndoG overlap with TUNEL staining (caspase-independent apoptosis) (endonuclease G (EndoG); 10 µM): significant increase; EndoG mean intensity (endonuclease G (EndoG); 5 or 10 µM): No significant induction
C[C@]12CCc3nc(Nc4ccc(F)cc4F)sc3C1=CC[C@@H]1[C@@H]2CC[C@]2(C)C(=O)CC[C@@H]12 [Compound 6] |  | 1.71 µM |  | > 100 µM |  |  |  | > 100 µM |  |  | > 100 µM |  | > 100 µM |  |  |  | > 100 µM | 1.88 µM | > 100 µM | > 100 µM | TGI values against the cell lines of the melanoma panel (melanoma panel): did not show any useful TGI values
C[C@]12CCc3nc(-c4cccc(F)c4)sc3C1=CC[C@@H]1[C@@H]2CC[C@]2(C)C(=O)CC[C@@H]12 [Compound 8] | 6.47 µM | 1.74 µM | 3.36 µM | 6.62 µM | > 100 µM | >100 µM | 9.48 µM | 1.8 µM | 4.13 µM | > 100 µM | 2.97 µM | >100 µM | 1.53 µM | > 100 µM | 4.07 µM | > 100 µM | 2.74 µM | 4.05 µM | 6.12 µM | 1.9 µM | TGI (total growth inhibition) (SK-MEL-2): 10.7 µM; CC50 (SK-MEL-5): 65.1 µM; TGI (total growth inhibition) (SK-MEL-5): 16.9 µM; CC50 (UACC-257): > 100 µM; TGI (total growth inhibition) (UACC-257): >100 µM; LC50 (50% lethal concentration) (UACC-62): 37.3 µM; TGI (total growth inhibition) (UACC-62): 5.70 µM; solubility in the growth media [1]: low solubility
